In patent US20050020542A1, “Method of modulating sodium ion absorption in epithelial cells” (priority 2001, published 2005):
pEC50: −log10 of the molar value. Entries after “also recorded” stand apart in the source; their conditions may differ. Like-named read-outs stand apart in the source and are kept apart here.

Molecular target: T1, epithelial sodium channel (ENaC) (Homo sapiens, UniProt P37088+P51168+P51170)
T1 construct: Nasal Polyps were surgically obtained from a CF patient; endogenous in cells; host or cells: primary cystic fibrosis human nasal epithelial (CFHNE) cells from nasal polyps of a CF patient, grown at air-liquid interface
T1 sequence (P37088 1-669): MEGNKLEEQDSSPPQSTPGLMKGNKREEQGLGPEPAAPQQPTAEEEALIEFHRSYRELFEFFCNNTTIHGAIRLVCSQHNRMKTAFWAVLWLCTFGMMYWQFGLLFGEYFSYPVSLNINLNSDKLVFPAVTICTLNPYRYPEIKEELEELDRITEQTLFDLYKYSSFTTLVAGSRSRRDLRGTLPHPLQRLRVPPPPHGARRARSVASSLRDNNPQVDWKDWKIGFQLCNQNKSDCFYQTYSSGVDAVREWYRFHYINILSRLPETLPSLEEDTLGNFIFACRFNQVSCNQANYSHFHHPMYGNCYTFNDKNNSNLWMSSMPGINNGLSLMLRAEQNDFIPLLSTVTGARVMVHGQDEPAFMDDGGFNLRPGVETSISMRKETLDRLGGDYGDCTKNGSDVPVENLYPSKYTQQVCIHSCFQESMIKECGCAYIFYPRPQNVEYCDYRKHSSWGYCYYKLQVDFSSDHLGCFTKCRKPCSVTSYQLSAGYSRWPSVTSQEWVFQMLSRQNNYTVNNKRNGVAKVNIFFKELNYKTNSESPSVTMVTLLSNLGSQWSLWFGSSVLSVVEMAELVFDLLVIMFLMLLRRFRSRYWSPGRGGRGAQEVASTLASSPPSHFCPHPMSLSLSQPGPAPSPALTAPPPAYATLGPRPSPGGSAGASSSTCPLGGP
T1 sequence (P51168 1-640): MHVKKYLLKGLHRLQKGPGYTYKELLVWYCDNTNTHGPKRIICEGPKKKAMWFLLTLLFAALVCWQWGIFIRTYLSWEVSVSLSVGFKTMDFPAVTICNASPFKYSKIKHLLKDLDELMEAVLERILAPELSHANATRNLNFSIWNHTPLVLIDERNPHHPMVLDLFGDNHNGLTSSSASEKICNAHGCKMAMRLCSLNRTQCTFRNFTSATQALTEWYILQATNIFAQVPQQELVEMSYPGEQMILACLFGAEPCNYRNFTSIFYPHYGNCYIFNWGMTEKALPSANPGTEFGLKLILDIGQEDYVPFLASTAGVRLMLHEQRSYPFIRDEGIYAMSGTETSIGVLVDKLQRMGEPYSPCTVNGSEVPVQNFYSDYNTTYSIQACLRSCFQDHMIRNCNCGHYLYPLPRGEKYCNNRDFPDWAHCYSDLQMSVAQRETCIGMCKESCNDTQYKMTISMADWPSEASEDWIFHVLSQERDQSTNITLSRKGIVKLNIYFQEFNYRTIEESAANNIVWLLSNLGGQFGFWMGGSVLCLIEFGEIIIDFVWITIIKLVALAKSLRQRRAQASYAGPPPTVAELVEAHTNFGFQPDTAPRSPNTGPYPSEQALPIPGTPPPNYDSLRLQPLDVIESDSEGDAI
T1 sequence (P51170 1-649): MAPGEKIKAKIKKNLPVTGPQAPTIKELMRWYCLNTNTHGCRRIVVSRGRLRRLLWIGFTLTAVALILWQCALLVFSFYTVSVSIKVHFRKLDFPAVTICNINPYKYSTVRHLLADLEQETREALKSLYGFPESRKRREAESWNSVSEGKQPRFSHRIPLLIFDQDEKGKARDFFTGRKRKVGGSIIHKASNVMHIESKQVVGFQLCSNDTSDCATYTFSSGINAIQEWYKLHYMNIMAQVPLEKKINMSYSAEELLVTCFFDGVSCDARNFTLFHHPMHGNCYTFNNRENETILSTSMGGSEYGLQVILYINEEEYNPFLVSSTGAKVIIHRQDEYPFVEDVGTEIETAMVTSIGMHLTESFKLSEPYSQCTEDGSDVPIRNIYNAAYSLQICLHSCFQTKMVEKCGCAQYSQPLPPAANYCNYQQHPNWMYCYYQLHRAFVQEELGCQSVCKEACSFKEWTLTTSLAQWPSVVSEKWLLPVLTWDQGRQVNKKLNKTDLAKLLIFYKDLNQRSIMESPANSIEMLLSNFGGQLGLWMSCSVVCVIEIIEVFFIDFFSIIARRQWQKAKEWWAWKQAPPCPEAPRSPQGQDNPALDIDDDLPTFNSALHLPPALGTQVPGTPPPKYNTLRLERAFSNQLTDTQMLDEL
Assay: Cystic fibrosis human nasal epithelial (CFHNE) cell Ussing chamber assay, short-circuit current (Isc)
Format: cell-based
Procedure: Sodium uptake inhibiting and enhancing inositol polyphosphate compounds are determined by the cystic fibrosis human nasal epithelial (CFHNE) cell assay, as described in detail in Examples 1 and 2, i.e., by mounting monolayers of human CF nasal epithelial cells in Ussing chambers, and then monitoring short-circuit current (Isc) and resistance after contact with a test inositol polyphosphate compound.
Elevated basal Isc measured in monolayer cultures in Ussing Chambers is a prominent characteristic of cultures of CF human nasal airway epithelia that distinguishes it from normal tissue. Although basal Isc is largely driven by sodium channel activity (ENaC) it has been closely associated with both CFTR and Ca^2+ activated Cl^− channels. (Devor and Pilewski, 1999; Inglis et al., 1999; Mall et al., 1999; Ramminger et al., 1999; Wang and Chan, 2000).
CF Human Nasal Epithelial (CFHNE) Cell Isolation and Proliferation: Nasal Polyps were surgically obtained from a CF patient at Children's Hospital (Seattle, Wash.), transported, on ice in a sterile container containing a 1:1 mixture of Dulbecco's modification of minimum essential medium Eagle and Ham's F-12 nutrient medium (DMEM/F-12)(Irvine Scientific, Santa Ana, Calif.) supplemented with 100 U/ml penicillin, 0.1 mg/ml streptomycin, 10 mM HEPES, and 2 mM L-glutamine. The tissue samples were aseptically removed from the transport medium and washed (repeated 5×) by suspending in 40 ml of Joklik's modification of minimum essential medium Eagle (JMEM) at 4° C., and centrifuging at 500 RPM. The supernatant was aspirated and discarded. The tissue was then transferred to JMEM containing 200 U/ml penicillin, 0.2 mg/ml streptomycin, 0.1 mg/ml gentamycin sulfate (Clonetics, San Diego, Calif.), and 0.1 μg/ml amphotericin-B (Clonetics), and 0.1% Protease (Sigma), washed an additional 2×, suspended in 15 ml in a 10 cm tissue culture dish, and incubated at 4° C. for 24 hours. The tissue samples were then gently triturated, the connective tissue aseptically removed, and the remaining cell suspension centrifuged at 1000 RPM for 5 min. The supernatant was aspirated and the pellet was resuspended in 10 ml JMEM with 0.025% trypsin-EDTA and allowed to incubate for 5 min. After 5 min., 10% Fetal Bovine Serum (FBS) was added to deactivate the trypsin, and the cell suspension was centrifuged at 1000 RPM. The supernatant was aspirated and the cell pellet was resuspended in a proliferation media consisting of Keratinocyte-Serurm Free Medium (KSFM)(Gibco-BRL, Grand Island, N.Y.) containing 5 ng/ml EGF (Gibco), 50 μg/ml BPE (Gibco), 100 U/ml penicillin, 0.1 mg/ml streptomycin, and 2 mM L-glutamine. The cell suspension was transferred to 2, 10 cm tissue culture dishes coated with 1 μg/cm^2 Vitrogen (Becton-Dickinson, Bedford, Mass.), incubated at 37° C. in a humidified atmosphere of 5% CO2 and 95% air. The cells were allowed to grow for 6 days (70-80% confluence) with the media being replaced with fresh media every other day. The cells were then trypsinized using 0.025% trypsin-EDTA for 5 min. The cell suspension was collected, the trypsin deactivated with 10% FBS, and centrifuged at 1000 rpm for 5 min. The cells were then counted using a hemocytometer. There was a typical yield of 3×10^6 cells per dish. The supernatant was aspirated and the cells were resuspended in KSFM and plated on 1 μg/cm^2 Vitrogen at a density of 5×10^3 cells/cm^2.
CFHNE Cell Ussing Chamber Preparation: The CFHNE cells were prepared for Ussing Chamber studies using Snapwell permeable supports (0.4 μm pore size) (Corning Costar, Cambridge, Mass.) coated with 1 μg/cm^2 Vitrogen. Cells were plated at 10^5 cells/cm^2 in KSFM. […]

## CCCCCCCCOC1C(OC(=O)CCC)C(OP(=O)(OCOC(=O)CC)OCOC(=O)CC)C(OP(=O)(OCOC(=O)CC)OCOC(=O)CC)C(OP(=O)(OCOC(=O)CC)OCOC(=O)CC)C1OP(=O)(OCOC(=O)CC)OCOC(=O)CC (stereo not drawn) [INO-E2, 2-O-butyryl-1-O-octyl-myo-inositol 3,4,5,6-tetrakisphosphate octakis (propionoxymethyl) ester]
2.5 μM, acute
  acute effect on Isc: acute inhibitory effect on Isc
2.5 μM, single addition, after 24 hrs
  persistence of acute Isc effect after 24 hrs: dissipated
5 μM for 2 hours, tested 48 hours later
  inhibition of Isc 48 hours after exposure (reversibility): negligible inhibition of Isc
1-2.5 μM repeatedly over 96 hours (every 24 hrs for 4 days), FIG. 3
  effect of repeated exposure on basal Isc: corrective changes in basal Isc; also recorded: cumulative beneficial effect; also recorded: reverses the pathologically elevated basal Isc
24 hr preincubation EC50 vs acute EC50
  decrease in potency after 24 hr preincubation versus acute addition: 50-80%
Cl- free buffer, FIG. 1A
  inhibition of spontaneous Isc in Cl- free buffer: not reduced
Acute addition, data not shown, read-out: EC50 on Isc following acute addition of compound
  pEC50: 5.70 to 6.00
Acute addition, reduced chloride and chloride free buffers, FIG. 1A
  acute effect on spontaneous amiloride-inhibitable Isc: inhibits spontaneous amiloride-inhibitable Isc in a dose-dependent fashion
Applied apically 2 hrs, washed, tested 24 hrs later, CFHNE monolayers, read-out: EC50 of prolonged effect on basal amiloride-inhibitable Isc
  pEC50: 5.00 to 5.30
